Experimental data taken from PubChem BioAssay AID1963422 (Molecular Pharmacology Branch, DTP, NCI, 2024).
pIC50: −log10 of the molar value.

System: 463943-066-T-J2-PDC complex spheroid growth
Experiment: Anticancer human tumor 463943-066-T-J2-PDC patient-derived colon adenocarcinoma cell line growth inhibition [Asc]
Settings: for pIC50: curve of first compound; for viability, T/C: stronger effect = lower value
Method in brief: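 Spheroid model: tumor line + HUVEC + hMSC. Single agents and combinations; top conc. at/near clinical Cmax (10 microM if undetermined), half-log dilutions. DMSO stocks at 800-fold test concentration.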

[1] = second compound 0.0316 µM, first compound 0.00316 µM
[2] = second compound 0.0316 µM, first compound 0.01 µM
[3] = second compound 0.0316 µM, first compound 0.0316 µM
[4] = second compound 0.0316 µM, first compound 0.1 µM
[5] = second compound 0.0316 µM, first compound 0.316 µM
[6] = second compound 0.0316 µM, first compound 1 µM
[7] = second compound 0.1 µM, first compound 0.00316 µM
[8] = second compound 0.1 µM, first compound 0.01 µM
[9] = second compound 0.1 µM, first compound 0.0316 µM
[10] = second compound 0.1 µM, first compound 0.1 µM
[11] = second compound 0.1 µM, first compound 0.316 µM
[12] = second compound 0.1 µM, first compound 1 µM
[13] = second compound 0.316 µM, first compound 0.00316 µM
[14] = second compound 0.316 µM, first compound 0.01 µM
[15] = second compound 0.316 µM, first compound 0.0316 µM
[16] = second compound 0.316 µM, first compound 0.1 µM
[17] = second compound 0.316 µM, first compound 0.316 µM
[18] = second compound 0.316 µM, first compound 1 µM
[19] = second compound 1 µM, first compound 0.00316 µM
[20] = second compound 1 µM, first compound 0.01 µM
[21] = second compound 1 µM, first compound 0.0316 µM
[22] = second compound 1 µM, first compound 0.1 µM
[23] = second compound 1 µM, first compound 0.316 µM
[24] = second compound 1 µM, first compound 1 µM
[25] = second compound 3.16 µM, first compound 0.00316 µM
[26] = second compound 3.16 µM, first compound 0.01 µM
[27] = second compound 3.16 µM, first compound 0.0316 µM
[28] = second compound 3.16 µM, first compound 0.1 µM
[29] = second compound 3.16 µM, first compound 0.316 µM
[30] = second compound 3.16 µM, first compound 1 µM
[31] = second compound 10 µM, first compound 0.00316 µM
[32] = second compound 10 µM, first compound 0.01 µM
[33] = second compound 10 µM, first compound 0.0316 µM
[34] = second compound 10 µM, first compound 0.1 µM
[35] = second compound 10 µM, first compound 0.316 µM
[36] = second compound 10 µM, first compound 1 µM
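Further: compound exposure lasted 7 days.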
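Wherever viability, T/C is given: 100% = DMSO vehicle control wells.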

Structure (SMILES): CCN1CCN(Cc2ccc(Nc3ncc(F)c(-c4cc(F)c5nc(C)n(C(C)C)c5c4)n3)nc2)CC1 + Cc1c(S(C)(=O)=O)c(-c2cc(F)cc(N3CCN(c4ccc(NS(=O)(=O)c5ccc(NC(CCN6CCC(C(=O)OCCCP(=O)(O)O)CC6)CSc6ccccc6)c(S(=O)(=O)C(F)(F)F)c5)cc4)CC3)c2)c(-c2ccc(Cl)cc2)n1C(C)C
- pIC50 (second compound 0.0316 µM): < 6.00
- pIC50 (second compound 0.1 µM): < 6.00
- pIC50 (second compound 0.316 µM): < 6.00
- pIC50 (second compound 1 µM): < 6.00
- pIC50 (second compound 3.16 µM): < 6.00
- pIC50 (second compound 10 µM): 6.41
- viability, T/C [1]: 98.2%
- viability, T/C [2]: 104%
- viability, T/C [3]: 87.9%
- viability, T/C [4]: 96.6%
- viability, T/C [5]: 109%
- viability, T/C [6]: 106%
- viability, T/C [7]: 94%
- viability, T/C [8]: 95.5%
- viability, T/C [9]: 92.1%
- viability, T/C [10]: 90.5%
- viability, T/C [11]: 103%
- viability, T/C [12]: 96.8%
- viability, T/C [13]: 90.9%
- viability, T/C [14]: 91.2%
- viability, T/C [15]: 84.4%
- viability, T/C [16]: 88.5%
- viability, T/C [17]: 90.3%
- viability, T/C [18]: 90%
- viability, T/C [19]: 79.7%
- viability, T/C [20]: 81.3%
- viability, T/C [21]: 76%
- viability, T/C [22]: 79%
- viability, T/C [23]: 80.6%
- viability, T/C [24]: 72.3%
- viability, T/C [25]: 61.8%
- viability, T/C [26]: 61.5%
- viability, T/C [27]: 62.4%
- viability, T/C [28]: 62.9%
- viability, T/C [29]: 60%
- viability, T/C [30]: 56%
- viability, T/C [31]: 49.1%
- viability, T/C [32]: 52.6%
- viability, T/C [33]: 51.4%
- viability, T/C [34]: 52.9%
- viability, T/C [35]: 51.2%
- viability, T/C [36]: 44.8%

Structure (SMILES): NC(=O)C(=Cn1cnc(-c2cc(C(F)(F)F)cc(C(F)(F)F)c2)n1)c1cncnc1 + Cc1c(S(C)(=O)=O)c(-c2cc(F)cc(N3CCN(c4ccc(NS(=O)(=O)c5ccc(NC(CCN6CCC(C(=O)OCCCP(=O)(O)O)CC6)CSc6ccccc6)c(S(=O)(=O)C(F)(F)F)c5)cc4)CC3)c2)c(-c2ccc(Cl)cc2)n1C(C)C
- pIC50 (second compound 0.0316 µM): < 6.52
- pIC50 (second compound 0.1 µM): < 6.52
- pIC50 (second compound 0.316 µM): < 6.52
- pIC50 (second compound 1 µM): < 6.52
- pIC50 (second compound 3.16 µM): < 6.52
- pIC50 (second compound 10 µM): 9.02
- viability, T/C (second compound 0.0316 µM, first compound 0.000949 µM): 96.5%
- viability, T/C (second compound 0.0316 µM, first compound 0.003 µM): 97%
- viability, T/C (second compound 0.0316 µM, first compound 0.00949 µM): 84.1%
- viability, T/C (second compound 0.0316 µM, first compound 0.03 µM): 89.1%
- viability, T/C (second compound 0.0316 µM, first compound 0.0949 µM): 86%
- viability, T/C (second compound 0.0316 µM, first compound 0.3 µM): 72.3%
- viability, T/C (second compound 0.1 µM, first compound 0.000949 µM): 93.9%
- viability, T/C (second compound 0.1 µM, first compound 0.003 µM): 88.4%
- viability, T/C (second compound 0.1 µM, first compound 0.00949 µM): 84.4%
- viability, T/C (second compound 0.1 µM, first compound 0.03 µM): 80.7%
- viability, T/C (second compound 0.1 µM, first compound 0.0949 µM): 81.8%
- viability, T/C (second compound 0.1 µM, first compound 0.3 µM): 69.5%
- viability, T/C (second compound 0.316 µM, first compound 0.000949 µM): 83.5%
- viability, T/C (second compound 0.316 µM, first compound 0.003 µM): 90.7%
- viability, T/C (second compound 0.316 µM, first compound 0.00949 µM): 75.2%
- viability, T/C (second compound 0.316 µM, first compound 0.03 µM): 78.8%
- viability, T/C (second compound 0.316 µM, first compound 0.0949 µM): 72%
- viability, T/C (second compound 0.316 µM, first compound 0.3 µM): 71.3%
- viability, T/C (second compound 1 µM, first compound 0.000949 µM): 78.9%
- viability, T/C (second compound 1 µM, first compound 0.003 µM): 75.2%
- viability, T/C (second compound 1 µM, first compound 0.00949 µM): 68.8%
- viability, T/C (second compound 1 µM, first compound 0.03 µM): 72%
- viability, T/C (second compound 1 µM, first compound 0.0949 µM): 72.7%
- viability, T/C (second compound 1 µM, first compound 0.3 µM): 61%
- viability, T/C (second compound 3.16 µM, first compound 0.000949 µM): 61.2%
- viability, T/C (second compound 3.16 µM, first compound 0.003 µM): 59.6%
- viability, T/C (second compound 3.16 µM, first compound 0.00949 µM): 57.6%
- viability, T/C (second compound 3.16 µM, first compound 0.03 µM): 58.8%
- viability, T/C (second compound 3.16 µM, first compound 0.0949 µM): 55.7%
- viability, T/C (second compound 3.16 µM, first compound 0.3 µM): 49.6%
- viability, T/C (second compound 10 µM, first compound 0.000949 µM): 50.1%
- viability, T/C (second compound 10 µM, first compound 0.003 µM): 45.6%
- viability, T/C (second compound 10 µM, first compound 0.00949 µM): 48.6%
- viability, T/C (second compound 10 µM, first compound 0.03 µM): 44%
- viability, T/C (second compound 10 µM, first compound 0.0949 µM): 52%
- viability, T/C (second compound 10 µM, first compound 0.3 µM): 36.2%

Structure (SMILES): O=C(c1ccc(F)c(F)c1Nc1ccc(I)cc1F)N1CC(O)([C@@H]2CCCCN2)C1 + Cc1c(S(C)(=O)=O)c(-c2cc(F)cc(N3CCN(c4ccc(NS(=O)(=O)c5ccc(NC(CCN6CCC(C(=O)OCCCP(=O)(O)O)CC6)CSc6ccccc6)c(S(=O)(=O)C(F)(F)F)c5)cc4)CC3)c2)c(-c2ccc(Cl)cc2)n1C(C)C
- pIC50 (second compound 0.0316 µM): 7.02
- pIC50 (second compound 0.1 µM): 6.95
- pIC50 (second compound 0.316 µM): 7.25
- pIC50 (second compound 1 µM): 7.57
- pIC50 (second compound 3.16 µM): 8.02
- pIC50 (second compound 10 µM): > 8.50
- viability, T/C [1]: 92%
- viability, T/C [2]: 80.6%
- viability, T/C [3]: 61.6%
- viability, T/C [4]: 52.2%
- viability, T/C [5]: 35.1%
- viability, T/C [6]: 28.1%
- viability, T/C [7]: 88.2%
- viability, T/C [8]: 76.3%
- viability, T/C [9]: 64.6%
- viability, T/C [10]: 50.5%
- viability, T/C [11]: 38.7%
- viability, T/C [12]: 24.4%
- viability, T/C [13]: 85.7%
- viability, T/C [14]: 77.8%
- viability, T/C [15]: 51.2%
- viability, T/C [16]: 45.2%
- viability, T/C [17]: 34.3%
- viability, T/C [18]: 24.8%
- viability, T/C [19]: 73.4%
- viability, T/C [20]: 61.6%
- viability, T/C [21]: 47.1%
- viability, T/C [22]: 36.7%
- viability, T/C [23]: 29.5%
- viability, T/C [24]: 20%
- viability, T/C [25]: 55.3%
- viability, T/C [26]: 51.8%
- viability, T/C [27]: 38.6%
- viability, T/C [28]: 33.8%
- viability, T/C [29]: 22.6%
- viability, T/C [30]: 16.6%
- viability, T/C [31]: 43.1%
- viability, T/C [32]: 41.1%
- viability, T/C [33]: 34%
- viability, T/C [34]: 25.9%
- viability, T/C [35]: 16.7%
- viability, T/C [36]: 12.3%
